Results taken from PubChem BioAssay AID330 (DTP/NCI, 2004).
“And” between values parts separate entries of the source, which are not always exact repeats. Identical values can stand only once. Toxic doses and inconclusive results are not listed. How the source made its calls: active means survival T/C of 150% or more; inactive means T/C below 125% in these data.

System: P388 leukemia ip, CD2F1 mice, survival T/C
Assay: NCI In Vivo Anticancer Drug Screen. Data for tumor model P388 Leukemia (intraperitoneal) in CD2F1 (CDF1) mice
Settings: endpoint: median survival time, higher = longer survival
Method in brief: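 Mice carrying the transplanted tumor received test compound or vehicle. Survival was recorded in each group, and the value is the treated-group measurement divided by that of the vehicle-treated control group.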

[1] = dose: 12.5 mg/kg/injection, schedule: Q01DX009 (ip), vehicle: Klucel (hydroxypropylcellulose) (HPC)
[2] = dose: 25.0 mg/kg/injection, schedule: Q01DX009 (ip), vehicle: Klucel (hydroxypropylcellulose) (HPC)
[3] = dose: 50.0 mg/kg/injection, schedule: Q01DX005 (ip), vehicle: Klucel (hydroxypropylcellulose) (HPC)
[4] = dose: 50.0 mg/kg/injection, schedule: Q01DX009 (ip), vehicle: Klucel (hydroxypropylcellulose) (HPC)
[5] = dose: 100.0 mg/kg/injection, schedule: Q01DX005 (ip), vehicle: Klucel (hydroxypropylcellulose) (HPC)
[6] = dose: 100.0 mg/kg/injection, schedule: Q01DX009 (ip), vehicle: Klucel (hydroxypropylcellulose) (HPC)
[7] = dose: 200.0 mg/kg/injection, schedule: Q01DX005 (ip), vehicle: Klucel (hydroxypropylcellulose) (HPC)
[8] = dose: 50.0 mg/kg/injection, schedule: Q01DX009 (ip), vehicle: saline with Tween-80
[9] = dose: 100.0 mg/kg/injection, schedule: Q01DX009 (ip), vehicle: saline with Tween-80
[10] = dose: 200.0 mg/kg/injection, schedule: Q01DX009 (ip), vehicle: saline with Tween-80
[11] = dose: 100.0 mg/kg/injection, schedule: Q04DX003 (ip), vehicle: saline
[12] = dose: 25.0 mg/kg/injection, schedule: Q01DX009 (ip), vehicle: saline with Tween-80
[13] = dose: 30.0 mg/kg/injection, schedule: Q01DX005 (ip), vehicle: saline with Tween-80
[14] = dose: 60.0 mg/kg/injection, schedule: Q01DX005 (ip), vehicle: saline with Tween-80
[15] = dose: 12.5 mg/kg/injection, schedule: Q01DX009 (ip), vehicle: saline with Tween-80
[16] = dose: 50.0 mg/kg/injection, schedule: Q01DX009 (ip), vehicle: saline
[17] = dose: 200.0 mg/kg/injection, schedule: Q01DX009 (ip), vehicle: Klucel (hydroxypropylcellulose) (HPC)

Measured: T/C

COC(=O)C1C(O)C(C)C(O)OC1C(C)C(O)C(C)/C=C\C=C(/C)C(=O)Nc1c(C)c(OC(C)=O)c2c(c1O)C(=O)C(C)=C1OCOC(/C(C)=C/C(C)=O)=C12 (stereo unspecified)
inactive: [1] 103 % of control | dose: 25.0 mg/kg/injection, schedule: Q01DX005 (ip), vehicle: Klucel (hydroxypropylcellulose) (HPC) 106 % of control | [2] 108 % of control | [3] 113 % of control | [4] 112 % of control | [5] 113 % of control | [6] 108 % of control | [7] 118 % of control

CCC12CCCN3CCC4(c5ccc(OC)cc5N(C)C4C(O)(OC(C)=O)C1OC(C)O)C32 (stereo unspecified)
inactive: dose: 50.0 mg/kg/injection, schedule: Q01DX005 (ip), vehicle: saline with Tween-80 100 % of control | dose: 100.0 mg/kg/injection, schedule: Q01DX005 (ip), vehicle: saline with Tween-80 87 % of control

C=C1C2CCC3C(CCC4C35CCC[C@]4(C)CN3CCO[C@H]35)(C2)[C@H]1O (stereo partly specified)
inactive: dose: 1.0 mg/kg/injection, schedule: Q01DX009 (ip), vehicle: Klucel (hydroxypropylcellulose) (HPC) 100 % of control | dose: 2.0 mg/kg/injection, schedule: Q01DX009 (ip), vehicle: Klucel (hydroxypropylcellulose) (HPC) 98 % of control | dose: 4.0 mg/kg/injection, schedule: Q01DX009 (ip), vehicle: Klucel (hydroxypropylcellulose) (HPC) 106 % of control | dose: 8.0 mg/kg/injection, schedule: Q01DX009 (ip), vehicle: Klucel (hydroxypropylcellulose) (HPC) 96 % of control

COC(=O)C1=C(C(=O)OC)P2(c3ccccc3)(c3ccccc3)S/C(=N\P(C)(C)=S)N2C1(c1ccccc1)c1ccccc1
inactive: [3] 98 % of control | [5] 88 % of control | [7] 92 % of control

CCC[As](C)SC1OC(COC(C)=O)C(OC(C)=O)C(OC(C)=O)C1OC(C)=O (stereo unspecified)
inactive: [8] 110 % of control | [9] 110 % of control | [10] 110 % of control

Cc1ccc(S(=O)(=O)C(c2ccccc2)C(Br)C(=O)c2ccccc2)cc1 (stereo unspecified)
inactive: [11] 87 % of control | dose: 200.0 mg/kg/injection, schedule: Q04DX003 (ip), vehicle: saline 88 % of control

CSc1ncnc2c1ncn2C1OC(CO)C(O)C1O (stereo unspecified)
inactive: dose: 2.0 mg/kg/injection, schedule: Q01DX010 (ip), vehicle: saline 107 % of control | dose: 4.0 mg/kg/injection, schedule: Q01DX010 (ip), vehicle: saline 102 % of control and 104 % of control | dose: 8.0 mg/kg/injection, schedule: Q01DX010 (ip), vehicle: saline 100 % of control and 116 % of control | dose: 16.0 mg/kg/injection, schedule: Q01DX010 (ip), vehicle: saline 109 % of control and 120 % of control | [12] 95 % of control | [8] 93 % of control | dose: 54.0 mg/kg/injection, schedule: Q01DX001 (ip), vehicle: saline 111 % of control | dose: 82.0 mg/kg/injection, schedule: Q01DX001 (ip), vehicle: saline 117 % of control and 118 % of control | [9] 104 % of control | [10] 101 % of control

COC(=O)c1cc(Cl)ccc1NCC(N)c1ccccc1 (stereo unspecified)
inactive: [13] 99 % of control | [14] 101 % of control and 97 % of control

CCOP(OCC)SSCn1nc2ccc3ccccc3n2c1=O
inactive: dose: 15.0 mg/kg/injection, schedule: Q01DX005 (ip), vehicle: saline with Tween-80 98 % of control | [13] 97 % of control | [14] 103 % of control

C[n+]1cccc(SC2CCC3CC4CC3C2C4)c1 (stereo unspecified)
inactive: [15] 113 % of control | [12] 102 % of control

Cc1ncc([N+](=O)[O-])n1CCSC(Cl)(Cl)Cl
inactive: dose: 12.5 mg/kg/injection, schedule: Q04DX003 (ip), vehicle: saline 99 % of control and 112 % of control | dose: 25.0 mg/kg/injection, schedule: Q04DX003 (ip), vehicle: saline 102 % of control and 111 % of control | dose: 50.0 mg/kg/injection, schedule: Q04DX003 (ip), vehicle: saline 112 % of control and 118 % of control | [11] 112 % of control and 89 % of control

COC(=O)/C(=C1/OC(=O)C(c2ccccc2)=C1O)c1ccccc1
inactive: dose: 6.25 mg/kg/injection, schedule: Q01DX009 (ip), vehicle: Klucel (hydroxypropylcellulose) (HPC) 99 % of control | [1] 94 % of control | [2] 99 % of control | [4] 93 % of control | [16] 95 % of control

Oc1ccc(C(O)CNCCCCCCNCC(O)c2ccc(O)c(O)c2)cc1O (stereo unspecified)
inactive: dose: 33.0 mg/kg/injection, schedule: Q01DX009 (ip), vehicle: saline 99 % of control and 88 % of control | [16] 121 % of control and 87 % of control and 96 % of control | dose: 75.0 mg/kg/injection, schedule: Q01DX009 (ip), vehicle: saline 96 % of control

N#C/C=C/C#N
inactive: dose: 0.15 mg/kg/injection, schedule: Q01DX009 (ip), vehicle: saline 100 % of control | dose: 0.3 mg/kg/injection, schedule: Q01DX009 (ip), vehicle: saline 109 % of control | dose: 0.6 mg/kg/injection, schedule: Q01DX009 (ip), vehicle: saline 113 % of control

[Cl][Rh][Cl].[NH-]c1nc(-c2ccccc2)cs1.[NH-]c1nc(-c2ccccc2)cs1.[NH-]c1nc(-c2ccccc2)cs1.[NH-]c1nc(-c2ccccc2)cs1
inactive: dose: 100.0 mg/kg/injection, schedule: Q01DX001 (ip), vehicle: DMSO 97 % of control | dose: 200.0 mg/kg/injection, schedule: Q01DX001 (ip), vehicle: DMSO 94 % of control | dose: 400.0 mg/kg/injection, schedule: Q01DX001 (ip), vehicle: DMSO 98 % of control

O=C(O)c1cc(-c2ccc(Cl)c(Cl)c2)nc2cc3ccccc3cc12
inactive: [4] 110 % of control | [6] 106 % of control | [17] 95 % of control

CC1CCC=CC(=O)C1 (stereo unspecified)
inactive: dose: 100.0 mg/kg/injection, schedule: Q04DX003 (ip), vehicle: Klucel (hydroxypropylcellulose) (HPC) 102 % of control | dose: 200.0 mg/kg/injection, schedule: Q04DX003 (ip), vehicle: Klucel (hydroxypropylcellulose) (HPC) 108 % of control

Cc1ccc2nc(-c3cccc(Cl)c3)oc(=O)c2c1
inactive: [4] 110 % of control | [6] 102 % of control | [17] 92 % of control

CC1=NN(c2ccc(S(=O)(=O)O)cc2)C(=O)C1N=Nc1ccc(-c2ccc(N=Nc3ccc(O)c(C(=O)O)c3)c(C)c2)cc1C (stereo unspecified)
inactive: dose: 6.25 mg/kg/injection, schedule: Q01DX009 (ip), vehicle: saline with Tween-80 100 % of control and 91 % of control | [15] 99 % of control and 106 % of control and 113 % of control | [12] 100 % of control and 120 % of control and 91 % of control

COC(=O)C1=C(C(=O)OC)C2(c3ccccc3-c3ccccc32)C2C=CC=CN12 (stereo unspecified)
inactive: [3] 100 % of control | [5] 101 % of control | [7] 100 % of control

Clc1cccc(N(C2=NCCS2)C2=NCCS2)c1
inactive: [2] 107 % of control | [4] 104 % of control | [6] 107 % of control | [17] 104 % of control

C/C(N)=C\C#N
inactive: dose: 25.0 mg/kg/injection, schedule: Q04DX003 (ip), vehicle: saline with Tween-80 100 % of control | dose: 50.0 mg/kg/injection, schedule: Q04DX003 (ip), vehicle: saline with Tween-80 101 % of control | dose: 100.0 mg/kg/injection, schedule: Q04DX003 (ip), vehicle: saline with Tween-80 98 % of control and 97 % of control

CC(CCC(=O)O)(c1ccc(O)cc1)c1ccc(O)cc1
inactive: dose: 100.0 mg/kg/injection, schedule: Q04DX003 (ip), vehicle: other 95 % of control | dose: 200.0 mg/kg/injection, schedule: Q04DX003 (ip), vehicle: other 95 % of control | dose: 400.0 mg/kg/injection, schedule: Q04DX003 (ip), vehicle: other 90 % of control
